Source: ChEMBL document CHEMBL5036364, “Cadinane-Type Sesquiterpenoids with Cytotoxic Activity from the Infected Stems of the Semi-mangrove Hibiscus tiliaceus” (J Nat Prod, 2022)

Tests used:
[1] = tested on: Huh-7; test: Cytotoxicity against human Huh-7 cells assessed as inhibition of cell growth in presence of 10% fetal bovine serum measured after 48 hrs incubation by MTT assay; type: functional, cell-based; details: Huh-7, 48 h
[2] = tested on: HepG2; test: Cytotoxicity against human HepG2 cells assessed as inhibition of cell growth n presence of 10% fetal bovine serum measured after 48 hrs incubation by MTT assay; type: functional, cell-based; details: HepG2, 48 h

Compound	IC50 [1] [µM]	IC50 [2] [µM]
CO[C@@]1(C)C[C@@H]2c3c(coc3C1=O)C(=O)C[C@H]2C(C)C	6.6	4.8
COc1c(C)cc2c(C(C)C)cc(O)c(C=O)c2c1O	> 10	> 10
COc1c(O)c(C)cc2c(C(C)C)cc(O)c(C=O)c12	> 10	> 10
CC(C)[C@@H]1C=Cc2coc3c2[C@H]1C[C@@H](C)C3=O	6.4	6.8
Cc1cc2c(C(C)C)cc(O)c(C=O)c2oc1=O	4	3.7
